Source: publication PMC6052462, “Oxidation resistance 1 is a novel senolytic target” (Aging Cell, 2018)

Biological target: T1, OXR1 (endogenous, senescent WI38 cells) (Homo sapiens, UniProt Q8N573)
T1 construct: native protein of human WI38 fibroblasts (senescent)
T1 sequence (Q8N573 1-874): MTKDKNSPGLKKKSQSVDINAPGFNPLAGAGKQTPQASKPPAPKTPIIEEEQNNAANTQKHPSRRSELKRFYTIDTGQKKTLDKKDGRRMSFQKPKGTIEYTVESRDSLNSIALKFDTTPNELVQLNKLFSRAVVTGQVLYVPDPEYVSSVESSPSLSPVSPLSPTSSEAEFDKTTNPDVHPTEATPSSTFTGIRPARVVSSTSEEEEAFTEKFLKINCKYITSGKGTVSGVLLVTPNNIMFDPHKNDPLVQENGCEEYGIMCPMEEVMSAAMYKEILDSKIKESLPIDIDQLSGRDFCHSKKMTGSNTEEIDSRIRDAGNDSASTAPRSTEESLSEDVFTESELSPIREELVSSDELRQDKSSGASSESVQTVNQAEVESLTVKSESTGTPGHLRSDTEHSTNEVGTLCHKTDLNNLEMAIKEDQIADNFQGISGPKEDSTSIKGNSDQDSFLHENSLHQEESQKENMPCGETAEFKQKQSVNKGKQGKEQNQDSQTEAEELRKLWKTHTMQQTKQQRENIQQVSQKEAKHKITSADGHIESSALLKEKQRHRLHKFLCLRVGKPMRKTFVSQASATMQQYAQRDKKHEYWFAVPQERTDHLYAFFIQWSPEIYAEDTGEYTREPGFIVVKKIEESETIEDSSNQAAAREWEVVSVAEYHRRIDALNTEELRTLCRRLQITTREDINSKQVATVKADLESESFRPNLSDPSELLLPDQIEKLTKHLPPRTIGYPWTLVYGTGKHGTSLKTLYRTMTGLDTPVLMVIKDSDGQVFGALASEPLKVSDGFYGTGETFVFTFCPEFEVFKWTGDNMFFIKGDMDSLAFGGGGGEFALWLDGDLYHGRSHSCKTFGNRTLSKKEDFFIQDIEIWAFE
Assay: click-chemistry pull-down from live cells, LC-MS/MS
Assay type: cell-based
Conditions: labelled compound; 5 µM, 5 h; covalent

C#CCCOc1c(OC)cc(/C=C/C(=O)N2CCC=CC2=O)cc1OC [PL probe, alkyne-labeled piperlongumine]
click-chemistry pull-down from live cells, LC-MS/MS: OXR1 was on the top of the list of the PL‐binding proteins in SCs
